# Results from PubChem BioAssay (NCI).
#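 The compound was tested at five concentrations on cells cultured in 96-well plates, with a 48-hour exposure period. GI50: concentration for 50% inhibition of growth. TGI: total growth inhibition.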
# How the values were obtained:
# Assay in all cases: NCI tumour cell line growth inhibition, 48 h
# OVCAR-5 ovarian = test system: OVCAR-5 ovarian
# RXF 393 renal = test system: RXF 393 renal
# MCF7 breast = test system: MCF7 breast
# EKVX NSCLC = test system: EKVX NSCLC
# SK-OV-3 ovarian = test system: SK-OV-3 ovarian
# NCI-H23 lung = test system: NCI-H23 lung
# SF-268 CNS = test system: SF-268 CNS
# SF-539 CNS = test system: SF-539 CNS
# SK-MEL-5 melanoma = test system: SK-MEL-5 melanoma
# SK-MEL-28 melanoma = test system: SK-MEL-28 melanoma
# CAKI-1 renal = test system: CAKI-1 renal
# HCT-15 colon = test system: HCT-15 colon
# UACC-62 melanoma = test system: UACC-62 melanoma
# OVCAR-4 ovarian = test system: OVCAR-4 ovarian
# T-47D breast = test system: T-47D breast
# OVCAR-8 ovarian = test system: OVCAR-8 ovarian
# SF-295 CNS = test system: SF-295 CNS
# RPMI-8226 leukemia = test system: RPMI-8226 leukemia
# SK-MEL-2 melanoma = test system: SK-MEL-2 melanoma
Structure (SMILES),TGI (OVCAR-5 ovarian),TGI (RXF 393 renal),TGI (MCF7 breast),TGI (EKVX NSCLC),TGI (SK-OV-3 ovarian),TGI (NCI-H23 lung),TGI (SF-268 CNS),TGI (SF-539 CNS),TGI (SK-MEL-5 melanoma),TGI (SK-MEL-28 melanoma),TGI (CAKI-1 renal),TGI (HCT-15 colon),TGI (UACC-62 melanoma),TGI (OVCAR-4 ovarian),TGI (T-47D breast),TGI (OVCAR-8 ovarian),TGI (SF-295 CNS),TGI (RPMI-8226 leukemia),TGI (SK-MEL-2 melanoma),GI50 (HCT-15 colon)
N#Cc1nc(COCCOCc2ccccc2)oc1N,> 100 µM,> 100 µM,> 100 µM,> 100 µM,> 100 µM,> 100 µM,> 100 µM,> 100 µM,> 100 µM,> 100 µM,> 100 µM,> 100 µM,> 100 µM,> 100 µM,> 100 µM,> 100 µM,> 100 µM,> 100 µM,> 100 µM,–
COc1cc(C2c3cc4c(cc3[C@H](OCCN(C)C)[C@@H]3COC(=O)C23)OCO4)cc(OC)c1O (stereo not given in full),3.82 µM,1.55 µM,> 100 µM,1.5 µM,1.31 µM,1.3 µM,2.97 µM,0.449 µM,1.74 µM,4.51 µM,1.07 µM,> 100 µM,0.496 µM,4.97 µM,2.52 µM,2.92 µM,0.583 µM,> 100 µM,2.44 µM,0.344 µM
O=C(CNc1ccc(Cl)cc1)Nn1c(-c2ccccc2)nc2ccccc2c1=O,28.2 µM,17.4 µM,8.06 µM,35.7 µM,27.8 µM,18 µM,26.9 µM,14.9 µM,7.09 µM,19.8 µM,23.6 µM,18.9 µM,10.9 µM,27 µM,32.6 µM,5.53 µM,29.8 µM,45.2 µM,30.4 µM,–
CN1CCC(OC(=O)Oc2ccccc2)(c2ccccc2)CC1,84.2 µM,> 100 µM,35.1 µM,79.5 µM,52.9 µM,35.7 µM,> 100 µM,26.5 µM,34.2 µM,41.7 µM,> 100 µM,36.8 µM,37.6 µM,48.4 µM,52.1 µM,33 µM,55.4 µM,35.7 µM,33.2 µM,–
CC(=O)c1cccc2c1CC1(C2)Cc2ccc3c(c2C1=O)CCC3 (stereo not given),> 100 µM,> 100 µM,76.4 µM,83.3 µM,> 100 µM,> 100 µM,> 100 µM,> 100 µM,33.7 µM,> 100 µM,> 100 µM,> 100 µM,> 100 µM,> 100 µM,> 100 µM,> 100 µM,> 100 µM,> 100 µM,> 100 µM,–
Cc1c(Cc2ccccc2)n(COCCCO)c(=O)[nH]c1=O,> 100 µM,> 100 µM,> 100 µM,> 100 µM,> 100 µM,> 100 µM,> 100 µM,> 100 µM,> 100 µM,> 100 µM,> 100 µM,> 100 µM,> 100 µM,> 100 µM,> 100 µM,> 100 µM,> 100 µM,> 100 µM,> 100 µM,–
